# Measured values published in ChEMBL document CHEMBL4428041, “Identification and SAR Evaluation of Hemozoin-Inhibiting Benzamides Active against Plasmodium falciparum” (J Med Chem, 2016).
# Active and inactive are the calls of the source. The calls are words filed in the database; no cut-off is given here.
# How the values were obtained:
# Ferriprotoporphyrin IX [1] = test: Binding affinity to Fe(3)PP9 solution assessed as ferriprotoporphyrin 9 complex formation by measuring compound concentration causing pink precipitate formation at <=5500 uM
# Hemozoin [2] = test: Inhibition of beta-hematin in water/NP40/DMSO solution incubated for 5 to 6hrs by detergent-mediated pyridine-ferrichrome method
# Plasmodium falciparum [3] = test: Antimalarial activity against CQ-sensitive Plasmodium falciparum NF54 infected in human type O+ erythrocytes assessed as growth inhibition incubated for 48 hrs by LDH assay; format: functional, organism-based; conditions: NF54, 48 h
# Plasmodium falciparum [4] = test: Antimalarial activity against CQ-sensitive Plasmodium falciparum D10 infected in human type O+ erythrocytes assessed as growth inhibition incubated for 48 hrs by LDH assay; format: functional, organism-based; conditions: D10, 48 h
# Plasmodium falciparum [5] = test: Antimalarial activity against CQ-sensitive Plasmodium falciparum D10 infected in human type O+ erythrocytes assessed as growth inhibition up to 249 uM incubated for 48 hrs by LDH assay; format: functional, organism-based
# Plasmodium falciparum [6] = test: Antimalarial activity against CQ-sensitive Plasmodium falciparum NF54 infected in human type O+ erythrocytes assessed as growth inhibition up to 249 uM incubated for 48 hrs by LDH assay; format: functional, organism-based
# Hemozoin [7] = test: Inhibition of hemozoin formation in CQ-sensitive Plasmodium falciparum D10 infected in human type O+ erythrocytes assessed as hemozoin level at beta-hematin IC50 incubated for 32 hrs by cell fractionation assay (reference value: 89%); format: cell-based; set-up: scale not given: the % may be the effect or the level left; conditions: Erythrocyte
# Hemozoin [8] = test: Inhibition of hemozoin formation in CQ-sensitive Plasmodium falciparum D10 infected in human type O+ erythrocytes assessed as free heme level at beta-hematin IC50 incubated for 32 hrs by cell fractionation assay (reference value: 7%); format: cell-based; set-up: scale not given: the % may be the effect or the level left; conditions: Erythrocyte
# [9] = Kinetic solubility of compound in at pH 6.5 after 2 hrs by shake flask assay; format: physicochemical; conditions: buffer, read-out: Kinetic_solubility
# [10] = Half life in human liver microsomes at 0.1 uM in presence of NADPH by LC-MS/MS analysis; format: ADME, Microsome
# [11] = Clearance in human liver microsomes assessed per mg of protein at 0.1 uM by LC-MS/MS analysis; format: ADME, Microsome; conditions: read-out: CLH
# [12] = Kinetic solubility of compound at pH 2 after 2 hrs by shake flask assay; format: physicochemical; conditions: buffer, read-out: Kinetic_solubility
# [13] = Extraction ratio in human liver microsomes assessed per mg of protein at 0.1 uM by LC-MS/MS analysis; format: ADME, Microsome; conditions: read-out: ERH
# Hemozoin [14] = test: Inhibition of hemozoin formation in Plasmodium falciparum trophozoites infected in human erythrocytes assessed as induction of irregularly scattered and shapeless hemozoin clumps inside swollen digestive vacuole at 0.22 ug/ml incubated for 32 hrs by transmission electron microscopic analysis relative to control; format: cell-based; conditions: Erythrocyte
# CHO = test: Cytotoxicity against CHO cells by MTT assay; format: cell-based; conditions: Cricetulus griseus
# [15] = Extraction ratio in mouse liver microsomes assessed per mg of protein at 0.1 uM by LC-MS/MS analysis; format: ADME, Microsome; conditions: read-out: ERH
# Hemozoin [16] = test: Inhibition of hemozoin formation in CQ-sensitive Plasmodium falciparum D10 infected in human type O+ erythrocytes assessed as increase in free heme incubated for 32 hrs by cell fractionation assay; format: cell-based; conditions: Erythrocyte
# [17] = Half life in mouse liver microsomes at 0.1 uM in presence of NADPH by LC-MS/MS analysis; format: ADME, Microsome
# [18] = Half life in rat liver microsomes at 0.1 uM in presence of NADPH by LC-MS/MS analysis; format: ADME, Microsome
# [19] = Kinetic solubility of compound FaSSIF at pH 6.5 after 2 hrs by shake flask assay; format: physicochemical; conditions: read-out: Kinetic_solubility
# Plasmodium falciparum [20] = test: Antimalarial activity against CQ-resistant Plasmodium falciparum K1 infected in human type O+ erythrocytes assessed as growth inhibition incubated for 48 hrs by LDH assay; format: functional, organism-based; conditions: K1, 48 h
# Hemozoin [21] = test: Inhibition of hemozoin formation in CQ-sensitive Plasmodium falciparum D10 infected in human type O+ erythrocytes assessed as decrease in hemozoin formation incubated for 32 hrs by cell fractionation assay; format: cell-based; conditions: Erythrocyte
# [22] = Clearance in mouse liver microsomes assessed per mg of protein at 0.1 uM by LC-MS/MS analysis; format: ADME, Microsome; conditions: read-out: CLH
# [23] = Clearance in rat liver microsomes assessed per mg of protein at 0.1 uM by LC-MS/MS analysis; format: ADME, Microsome; conditions: read-out: CLH
# [24] = Extraction ratio in rat liver microsomes assessed per mg of protein at 0.1 uM by LC-MS/MS analysis; format: ADME, Microsome; conditions: read-out: ERH
# [25] = Selectivity index, ratio of IC50 for cytotoxicity against CHO cells to IC50 for CQ-sensitive Plasmodium falciparum NF54 infected in human type O+ erythrocytes; format: toxicity, cell-based; conditions: Chinese hamster, read-out: Ratio IC50
# Ferriprotoporphyrin IX [26] = test: Binding affinity to Fe(3)PP9 solution assessed as ferriprotoporphyrin 9 complex formation by measuring pink precipitate formation at <=5500 uM
# Plasmodium falciparum [27] = test: Antimalarial activity against Plasmodium falciparum D6 infected in red blood cells assessed as growth inhibition by SYBR green1 fluorescence-based assay; format: functional, organism-based
# Hemozoin [28] = test: Inhibition of beta-hematin incubated for 6 hrs by NP40 detergent-mediated assay
compound,measurement,setting,value
O=C(Nc1ccncc1)c1cccc(C(F)(F)F)c1,Activity,Ferriprotoporphyrin IX [1],1300 to 2300 µM
O=C(Nc1ccccc1)c1cc(C(=O)Nc2ccccc2)cc([N+](=O)[O-])c1,IC50,Hemozoin [2],7 µM
same,IC50,Plasmodium falciparum [3],1.4 µM
N#Cc1cc(C(=O)Nc2ccccc2)cc(C(=O)Nc2ccccc2)c1,IC50,Hemozoin [2],4.4 µM
same,IC50,Plasmodium falciparum [4],5.2 µM
O=C(Nc1ccncc1)c1cccc(Cl)c1,Activity,Ferriprotoporphyrin IX [1],1300 to 2300 µM
O=C(Nc1ccccc1)c1cc(C(=O)Nc2nc3ccccc3[nH]2)cc([N+](=O)[O-])c1,IC50,Hemozoin [2],68 µM
same,Activity,Plasmodium falciparum [5],inactive
same,Activity,Plasmodium falciparum [6],inactive
CN(C)Cc1ccc(NC(=O)c2cc(C(=O)Nc3ccc(CN(C)C)cc3)cc([N+](=O)[O-])c2)cc1,Activity,Hemozoin [7],53%
same,IC50,Hemozoin [2],7.9 µM
same,IC50,Plasmodium falciparum [3],1.5 µM
same,Activity,Hemozoin [8],41%
CC(C)(C)c1cc(C(=O)Nc2cccnc2)cc(C(=O)Nc2cccnc2)c1,IC50,Hemozoin [2],6.8 µM
same,solubility kinetic at 2 h,[9],92.7 µM
same,half-life at 0.1 µM,[10],2.37 h
same,microsomal CLint at 0.1 µM,[11],14.1 µL/min/mg
same,solubility kinetic at 2 h,[12],197 µM
same,hepatic extraction ratio at 0.1 µM,[13],0.4
same,Activity,Hemozoin [14],Active
same,IC50,CHO,185 µM
same,hepatic extraction ratio at 0.1 µM,[15],0.6
same,inhibition,Hemozoin [16],Dose-dependent effect
same,half-life at 0.1 µM,[17],0.873 h
same,half-life at 0.1 µM,[18],1.55 h
same,solubility kinetic at 2 h,[19],154 µM
same,IC50,Plasmodium falciparum [20],1.7 µM
same,IC50,Plasmodium falciparum [3],0.6 µM
same,inhibition,Hemozoin [21],Dose-dependent effect
same,microsomal CLint at 0.1 µM,[22],130 µL/min/mg
same,microsomal CLint at 0.1 µM,[23],33.5 µL/min/mg
same,IC50,Plasmodium falciparum [4],0.7 µM
same,hepatic extraction ratio at 0.1 µM,[24],0.4
same,selectivity ratio,[25],308
COc1cc(C(=O)Nc2ccncc2)cc(C(=O)Nc2ccncc2)c1,IC50,Hemozoin [2],22 µM
same,IC50,Plasmodium falciparum [3],3 µM
O=C(Nc1ccncc1)c1ccc([N+](=O)[O-])cc1,IC50,Hemozoin [2],> 5500 µM
same,Activity,Ferriprotoporphyrin IX [1],inactive
same,Activity,Ferriprotoporphyrin IX [26],inactive
O=C(Nc1ccccc1)c1cccc(C(=O)Nc2ccccc2)c1,IC50,Hemozoin [2],> 1000 µM
same,IC50,Plasmodium falciparum [3],> 314 µM
O=C(Nc1ccncc1)c1cccc(C(=O)Nc2ccncc2)c1,IC50,Hemozoin [2],507 µM
same,IC50,Plasmodium falciparum [3],9 µM
CCN(CC)CCCC(C)Nc1ccnc2cc(Cl)ccc12 (stereo not given) [CHLOROQUINE],IC50,Hemozoin [2],31.5 µM
O=C(Nc1ccncc1)c1cc(C(=O)Nc2ccncc2)cc([N+](=O)[O-])c1,IC50,Hemozoin [2],4.3 µM
same,solubility kinetic at 2 h,[9],< 5 µM
same,half-life at 0.1 µM,[10],> 2.5 h
same,microsomal CLint at 0.1 µM,[11],< 11.6 µL/min/mg
same,solubility kinetic at 2 h,[12],200 µM
same,IC50,Plasmodium falciparum [27],0.19 µM
same,IC50,CHO,> 275 µM
same,IC50,Hemozoin [28],5.86 µM
same,half-life at 0.1 µM,[17],> 2.5 h
same,half-life at 0.1 µM,[18],> 2.5 h
same,solubility kinetic at 2 h,[19],13 µM
same,IC50,Plasmodium falciparum [3],0.7 µM
same,microsomal CLint at 0.1 µM,[22],< 11.6 µL/min/mg
same,microsomal CLint at 0.1 µM,[23],< 11.6 µL/min/mg
same,IC50,Plasmodium falciparum [4],0.9 µM
O=C(Nc1ccncc1)c1cc([N+](=O)[O-])cc([N+](=O)[O-])c1,IC50,Hemozoin [2],10.9 µM
same,IC50,Plasmodium falciparum [27],4.76 µM
same,IC50,Hemozoin [28],9.04 µM
same,IC50,Plasmodium falciparum [3],2.3 µM
same,IC50,Plasmodium falciparum [4],2.4 µM
CC(C)(C)c1cc(C(=O)Nc2ccncc2)cc(C(=O)Nc2ccncc2)c1,IC50,Hemozoin [2],13.3 µM
same,IC50,Plasmodium falciparum [3],1.6 µM
Cc1cc(C(=O)Nc2ccccc2)cc(C(=O)Nc2ccccc2)c1,IC50,Hemozoin [2],> 1000 µM
same,IC50,Plasmodium falciparum [3],146 µM
Cc1ccc(C(=O)Nc2ccncc2)cc1,IC50,Hemozoin [2],> 5500 µM
same,Activity,Ferriprotoporphyrin IX [1],inactive
same,Activity,Ferriprotoporphyrin IX [26],inactive
O=C(Nc1ccccn1)c1cc([N+](=O)[O-])cc([N+](=O)[O-])c1,IC50,Hemozoin [2],134 µM
same,IC50,Plasmodium falciparum [3],22 µM
same,IC50,Plasmodium falciparum [4],24 µM
O=C(Nc1ccncc1)c1ccc(Cl)c(Cl)c1,Activity,Ferriprotoporphyrin IX [1],700 to 1300 µM
